In experiment [1] the test system is rat femur bone defect. The following applies: 6 weeks after implantation.
Method: (§1) For anesthesia, an intraperitoneal injection with a mixture of ketamin hydrochloride (100 mg/ml per 80 mg/kg body weight) and xylazin 2% (12 mg/kg body weight) were used. The left thigh was shaved and a 3 cm lateral longitudinal skin incision was made. The lateral approach was performed posterior to vastus lateralis without damaging the muscle. A bone defect, 0.1 cm×0.4 cm in size, on left femur was created at middle portion of shaft by using a 0.5 mm cone-shape bur. After that, the implant was inserted into the cavity and covered with […] ™ (Johnson & Johnson Medical Limited, Neuchatel, Switzerland) to fix the implant in place. Radiographs were taken to verify the correct position of the bone defect using the great trochanter as control point. At the end of operation, skin wounds were sutured. Six weeks after operation, animals were sacrificed for biomechanical and histological analysis.
Femoral bone specimens were harvested for histological study 6 weeks after implantation. […] The 5-mm thick bone sections were removed and stained with hematoxylin and eosin (H&E; Santa Cruz, Santa Cruz, Calif., USA). A microscope with 10×, 100×, 400× magnification, equipped with a digital CCD camera (Eclipse 50i; Nikon Inc., Mich., USA), were used for images of the sections.
The subject of experiment [2] is bone morphogenetic protein-2 (BMP-2). The following applies: 6 weeks after implantation, versus PLGA group.
Method: as §1
The 5 μm thick sections of femoral bone were incubated in 0.1% EDTA for 10 min at 100 degree for antigen retrieval. Immunohistochemistry (IHC) was performed using the Immuno Cruz Staining System (Santa Cruz). After incubating with 5% BSA/PBS (Sigma, Saint Louis, Mo., USA) blocking solution for 2 h at room temperature, sections were labeled with human-specific anti-BMP2 (dilution 1:50; Abcam) overnight at 4 degree in a humid chamber. […]
Experiment [3] concerns rat femur bone defect. The experiment in a line: Rat femur bone defect model, 3-point bending test. The note with it: post-surgery 6 weeks.
Method: as §1
The present invention employed 3-point bending test to analyze the mechanical property at the end of experiment. Counterlateral femoral bone served as a non-defect femoral bone.
Mechanical property of bone: 3-point bending test: For testing the mechanical property of the repaired femoral defect, the Instron 4466 (model 4465; Instron, Canton, Mass.) was employed for mechanical tests. The rat femur was removed from body and all the connective tissues were stripped off. For 3-point bending, the femur bone was positioned onto two supports, and a single-pronged loading device was applied to the opposite surface at a point precisely in the middle between the two supports. The distance between two supports was 4 cm. Loading force was 1N with speed of 1 mm/min. The experimental procedure involved the measurement of the deflection of the bone at the point of load application and the concurrent measurement of the load, yielding a force-deflection graph. Parameters obtained from this graph include whole-bone stiffness (defined as the slope of the early, linear portion of the load-deflection curve), yield point, maximal load and fracture load. The Young's modulus of the material from the geometry of the loading device and the stiffness of the bone were measured. The data calculations were all based on beam theory and the Hooke's law.
Experiment [4] has as its system rat femur bone defect. The experiment in a line: Rat femur bone defect model, micro-CT trabecular bone volume. The following applies: 6 weeks after surgery; for trabecular bone volume in the femoral defect site: normalized with total defect length.
Method: For anesthesia, an intraperitoneal injection with a mixture of ketamin hydrochloride (100 mg/ml per 80 mg/kg body weight) and xylazin 2% (12 mg/kg body weight) were used. The left thigh was shaved and a 3 cm lateral longitudinal skin incision was made. The lateral approach was performed posterior to vastus lateralis without damaging the muscle. A bone defect, 0.1 cm×0.4 cm in size, on left femur was created at middle portion of shaft by using a 0.5 mm cone-shape bur. After that, the implant was inserted into the cavity and covered with […] ™ (Johnson & Johnson Medical Limited, Neuchatel, Switzerland) to fix the implant in place. Radiographs were taken to verify the correct position of the bone defect using the great trochanter as control point. At the end of operation, skin wounds were sutured.
Animals were anesthesia during micro-CT images scanning. Small animal micro-CT (Skyscan 1076, Bruker, Belgium) was employed for analyzing bone repair process in living animals and calculated by image software (CTAn) at the desired time point. The scan conditions were set at an aluminum filter of 0.5mm, 35 μm scanning resolution, x-ray voltage of 50 KV, x-ray current of 200 mA and an exposure time of 600 m-seconds. The area used for analysis began at the defect site close to femoral head and through all the defect area. Total volume indicated the inner area of cortical bone. Trabecular bone volume indicated the total trabecular bone within the total volume. Trabecular bone volume was normalized with total defect length in each rat.

As to “poly(lactic-co-glycolic acid) cross-linked alendronate [PLGA-ALN]”, the “cortical bone thickness and trabecular bone (H&E) versus PLGA group” value in experiment [1] was “Thicker cortical bone and more trabecular bone”. Also, in experiment [2], the “immunolocalized BMP-2 in the repaired cortical bone and trabecular bone” value is recorded as “predominant”. In experiment [3] (5 mg implant), the “Young's modulus” value was found to be 0.43±0.03 GPa, the maximal strength came to 172.5±18.2 N and the total energy absorption was 106.43±15.36 mm*N. Also, in experiment [3] (10 mg implant), the “Young's modulus” value is 0.51±0.03 GPa, the maximal strength was 191.7±11.7 N and the total energy absorption is given as 110.71±9.95 mm*N. Further, in experiment [4] (5 mg implant), the “trabecular bone volume relative to the control or PLGA group” value is 2 times and the “trabecular bone volume in the femoral defect site” value was determined as 1.413±0.21. In experiment [4] (10 mg implant), the “trabecular bone volume relative to the control or PLGA group” value was 2 times and the “trabecular bone volume in the femoral defect site” value was determined as 1.45±0.35.

The values above are taken from patent US9889225B2 (KAOHSIUNG MEDICAL UNIVERSITY, priority 2010, dated 2018).
